Assay results taken from ChEMBL document CHEMBL3507680, “University of Dundee, Gates Library screen for HepG2 cell viability”.

test: Human HepG2 cell viability assay in 384 well format; assay type: toxicity, cell-based; parameters: dose 125 nL, time 70.5 hour; cytotoxicity at 70.5 h: concentration not given beside the values; settings: HepG2 cells, read-out: Inhibition

SMILES	cytotoxicity at 70.5 h [%]
CCC(C(=O)NCC1CCN(c2cnn(C)c(=O)c2)CC1)n1cccn1 (stereo not drawn)	-7.23
Cc1nc2cc(OCc3nc(C(=O)NC(CO)CO)co3)ccc2s1	-8.5
CCn1c(CN(C)C)nnc1C1CCN(Cc2ccc(Cl)cc2)CC1	0.347
COc1ccc(-c2nccn2CCN2CCCCC2)c(OC)c1OC	4.66
CN(C)CCNc1cc(-c2ncccc2C(F)(F)F)c2cc[nH]c2n1	-6.02
Cc1cccnc1CN1CCN(Cc2ccc(-c3cc[nH]n3)o2)CC1	-7.65
O=C1CC(NS(=O)(=O)N2CCOCC2)CN1CCc1ccccc1 (stereo not drawn)	-3.7
Cc1ccccc1N1CCCN(C(=O)CN2C(=O)OC[C@@H]2C(C)C)CC1	25.8
O=C1NCCN2CCN(C(=O)NCCc3ccccc3)CC12 (stereo not drawn)	-9.06
CCn1c(CN(C)C)nnc1C1CCN(Cc2ccc(C)s2)CC1	-2.28
Cc1ccc(CSc2nc(N)cc(NCCC(N)=O)n2)cc1	-0.193
CN(CCc1ccccn1)C(=O)CCC1CCCN(c2cnccn2)C1 (stereo not drawn)	2.36
CN(Cc1nc(-c2ccccc2)no1)C(=O)CNS(C)(=O)=O	-8.66
Cc1cc(N2CCN(C(=O)[C@@H]3C[C@@H]4C=C[C@H]3C4)CC2)cc(C)n1	-15.6
CC(C)[C@@H]1CN(S(=O)(=O)Cc2ccccc2)C[C@H]1C(=O)O	-3.52
CC(=O)c1cc(CN2C[C@H]3CC[C@@H]2CN(S(C)(=O)=O)C3)cs1	13.8
Cc1nc2c(c(=O)n1C)CN(C(=O)C1CCCN(C(N)=O)C1)C2 (stereo not drawn)	-4.13
OC1CCN(CCCNc2nccc(C3CCCC3)n2)CC1	-2.73
CC(=O)N1CCN(Cc2ccc(F)c(C(F)(F)F)c2)CC(O)C1 (stereo not drawn)	-8.55
CCOCCCNC(=O)C1CCC(=O)N(CCc2ccc(Cl)cc2)C1 (stereo not drawn)	-7.25
CCN1CCN(C(=O)c2cc(C(F)(F)F)n[nH]2)[C@H]2CS(=O)(=O)C[C@H]21	-18.6
Cc1cccc(=O)n1CCC(=O)N1CC[C@@](O)(C2CCC2)[C@H](C)C1	-9.83
O=C1CCC(C(=O)N2CCOC(Cc3cccc4ccccc34)C2)=NN1 (stereo not drawn)	18.7
CCOC(=O)CC1CCCCN1C(=O)c1cccc2ccnn12 (stereo not drawn)	-6.11
CC(=O)Nc1ccc(CN(C)Cc2snnc2C)cc1	-5.27
Cc1c[nH]c(CN(C)C(=O)CCn2cnc3ccccc32)n1	-1.23

SMILES	cytotoxicity at 70.5 h [%]
COc1ccc(/C=C/CN2C[C@H]3CC[C@@H]2CN(S(=O)(=O)N(C)C)C3)cc1	-5.26
Cc1cc(C(=O)N2CC(O)CO2)c2ccc(C)c(C)c2n1 (stereo not drawn)	-6.82
Cn1nnnc1SCCNC(=O)C1CCN(C(=O)C2CCC2)CC1	-5.55
Fc1ccc2[nH]c(C3CCCN3Cc3c[nH]cn3)nc2c1 (stereo not drawn)	28.4
COc1cccc(Cn2ncnc2COC(C)C)c1	-15.5
CCOC(=O)CCNC(=O)N1CCCC(CNC(=O)c2cccs2)C1 (stereo not drawn)	-6.29
COc1ccc2[nH]nc(CN3CCC(C(C)N4CCCC4)CC3)c2c1 (stereo not drawn)	-1.99
COCC(Nc1ncnc2c1CCNCC2)c1ccccn1 (stereo not drawn)	-12.5
Cc1nn(C)c2nc(N(CCN(C)C)CC3CCCO3)sc12 (stereo not drawn)	-7.79
CCCc1cc(C(=O)NCCC2=CCCCC2)[nH]n1	-9.53
O=C1NCCN1CCNCC1(O)CCCN(CCC2CCCCC2)C1=O (stereo not drawn)	-4.14
CCCn1cc(C(=O)N[C@H]2CC[C@H](n3cnnc3)CC2)c(C)n1	0.742
COc1ccc2cc(CN(C)CCc3cn[nH]c3)c(=O)[nH]c2c1	-6.43
CC(O)c1cccc(-n2c(CCC(=O)O)nc3ccccc32)c1 (stereo not drawn)	-8.25
COc1nc2ccn(CCNc3cc(C)ccn3)c(=O)c2cc1C#N	-3.78
CC(C)CCN(C)C(=O)c1cc(CN2CCC(O)CC2)on1	-0.516
Cc1nc[nH]c1CN1CCN(C(=O)CN2CCCC2)[C@H]2CS(=O)(=O)C[C@H]21	3.25
COCc1nc(CNC(=O)c2cc(C)c(C)[nH]c2=O)no1	2.71
CCc1nccn1CCC(=O)N1CCN(c2ccccc2C)CC1C (stereo not drawn)	-10.2
CCCN1CCN(C(=O)c2cc3ccccc3cn2)[C@H]2CS(=O)(=O)C[C@H]21	-12
COCc1ccc(C(=O)N2CCC(Oc3ccccc3OC)CC2)s1	-15
CC(C)CN1CCc2[nH]cnc2C12CCN(C(=O)c1ccnn1C)CC2	-2.45
Cc1nc(CC(=O)N2CCN(CCOc3ccccc3)CC2)cs1	-10.1
c1ccc(CN2CCC(CCNc3ncnc4c3CCNCC4)C2)cc1 (stereo not drawn)	-2.61
CCCN1C(=O)[C@H]2CC[C@@H]1CN(S(=O)(=O)c1cccc(Cl)c1)C2	-9.33
CC(C)c1ccc(C#N)c(N2CC(C)(C)[C@@](C)(O)C2)n1	-17.8

SMILES	cytotoxicity at 70.5 h [%]
C[C@@H]1CN(C2CCN(Cc3nn(C)c4cccc(Cl)c34)CC2)C[C@H](C)O1	25.7
CC[C@@]1(O)CCN(C(=O)CCc2cnn(C)c2)C[C@H]1O	-9.56
Cc1n[nH]c(C)c1CN(C)C(C(=O)O)c1ccc2c(c1)OCO2 (stereo not drawn)	6.84
CC(=O)c1ccc(NC(=O)N(CCN(C)C)Cc2ccc(C)s2)cc1	2.42
CCNc1ncc(C(=O)N(C)Cc2nc3ccccc3n2C)cn1	-2.99
CC(c1ccccc1)n1c(SCC(=O)O)nnc1-c1ccn[nH]1 (stereo not drawn)	-5.88
O=C(O)C1(Oc2ccc3c(c2)OCO3)CCN(C2CCOCC2)CC1	-14.1
CC(C)(C)c1noc(-c2nc3c([nH]2)CCCNC3=O)n1	-4.9
CCCC1COCCN1Cc1ccc(NC(C)=O)cc1 (stereo not drawn)	-3.46
CCNC(=O)[C@@H]1C[C@@H](NC(=O)c2ccc(C)cc2O)CN1CCCSC	-3.38
Cc1cc2cccc(C(=O)N3CCOC4(CNCCOC4)C3)c2o1 (stereo not drawn)	32.7
CCn1nc(C)c(CCNC(=O)C2CCCN(C3CCCC3)C2)c1C (stereo not drawn)	20.4
COc1cccc(N2CCN(CC[C@H](O)c3ccccc3)CC2=O)c1	-10.7
CCCC1CCN(C(=O)c2coc(COc3ccc(OC)cc3)n2)C1 (stereo not drawn)	-3.1
O=C(Cn1ccnc1)N1CCC(n2cc(-c3cccc(Cl)c3)nn2)CC1	22.5
CCCc1nnc(N2CC[C@](C)(O)[C@H](C)C2)s1	8.74
COCCC(=O)N[C@H]1CN(c2nc(C)c3c(n2)CCCC3)C[C@@H]1C1CC1	-9.64
CCC(C(=O)N1CCN(C(=O)N2CCOCC2)CC1)n1cccn1 (stereo not drawn)	-5.93
Cc1c(CN2CC[C@@H](N3CCC(O)CC3)[C@H](O)C2)[nH]c2ccc(F)cc12	-2.56
CCn1c(CN(C)C)nnc1C1CCN(Cc2cnc(C)nc2)CC1	-5.5
Cc1cccc(-n2ncc3c2CCCC3NCc2cccc(O)c2)c1C (stereo not drawn)	-3.55
Cc1ccsc1-c1nccn1CCN(C)S(C)(=O)=O	-1.88
Cc1ccc2c(c1)SCC(=O)N2CC(=O)N1CCCC1c1nccs1 (stereo not drawn)	-14
O=C(c1cccnc1O)N1CCCC2(C=Cc3ccccc3O2)CC1 (stereo not drawn)	-4.51
CNc1ncc(CN(C)C(=O)c2c[nH]nc2-c2cccc(F)c2)cn1	-6.7
CC(C)N1CCC(C(=O)N2CCC(C(O)c3nccn3C)CC2)CC1 (stereo not drawn)	-11.2
